Laboratory results taken from ChEMBL document CHEMBL1201862, “PubChem BioAssay data set” (2004).
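Compound exposure: 48 hours, 5 concentrations, 96-well plates. At the GI50, growth is halved.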 Activity calls are given as the source filed them. No stated cut-off is given here; in the data, active = GI50 up to about 1.1 µM and inactive = higher.

Experiments:
Experiment in all cases: inhibition of tumour cell growth, NCI panel, 48 h
HCT-116 = system: HCT-116
HOP-62 = system: HOP-62
HT-29 = system: HT-29
MCF7 = system: MCF7
MDA-MB-231 = system: MDA-MB-231
MOLT-4 = system: MOLT-4
NCI-H23 = system: NCI-H23
OVCAR-3 = system: OVCAR-3
OVCAR-5 = system: OVCAR-5
PC-3 = system: PC-3
RPMI-8226 = system: RPMI-8226
SF-539 = system: SF-539
SK-MEL-2 = system: SK-MEL-2
SK-MEL-5 = system: SK-MEL-5
SK-OV-3 = system: SK-OV-3
TK-10 = system: TK-10
UACC-62 = system: UACC-62
A498 = system: A498
HOP-92 = system: HOP-92

Measured: GI50

C/C(=C\CO)CC/C=C(\C)CNc1c(F)c(F)c(F)c(F)c1F
inactive: HCT-116 50.8 µM | HOP-62 24.7 µM | HT-29 24 µM | MCF7 29.2 µM | MDA-MB-231 19 µM | MOLT-4 29.6 µM | NCI-H23 > 100 µM | OVCAR-3 20.2 µM | OVCAR-5 36.5 µM | PC-3 21.1 µM | RPMI-8226 14 µM | SF-539 20.8 µM | SK-MEL-2 20.7 µM | SK-MEL-5 15.8 µM | SK-OV-3 63.8 µM | TK-10 29.5 µM | UACC-62 17.2 µM

CC(Nc1ccc(Cl)cc1)c1ccncc1 (centres undefined)
active: SK-OV-3 0.0315 µM
inactive: A498 81.7 µM | HCT-116 53.3 µM | HOP-62 > 100 µM | HT-29 89.5 µM | MCF7 > 100 µM | MOLT-4 64.3 µM | NCI-H23 56.8 µM | OVCAR-3 > 100 µM | OVCAR-5 > 100 µM | PC-3 64.1 µM | RPMI-8226 12.4 µM | SF-539 > 100 µM | SK-MEL-2 > 100 µM | SK-MEL-5 36.6 µM | TK-10 > 100 µM

NCC(=O)Nc1ccccc1
inactive: A498 > 100 µM | HCT-116 > 100 µM | HOP-62 > 100 µM | HOP-92 > 100 µM | HT-29 > 100 µM | MDA-MB-231 15.5 µM | MOLT-4 > 100 µM | NCI-H23 > 100 µM | OVCAR-3 > 100 µM | OVCAR-5 > 100 µM | PC-3 > 100 µM | SK-MEL-2 87.7 µM | SK-MEL-5 > 100 µM | TK-10 > 100 µM | UACC-62 > 100 µM

CCOC(=O)c1nc2cc(F)c(F)cc2nc1NCc1cc(OC)c(OC)c(OC)c1
inactive: A498 > 100 µM | HCT-116 > 100 µM | HOP-62 38.5 µM | HOP-92 50.7 µM | HT-29 > 100 µM | MCF7 > 100 µM | MOLT-4 > 100 µM | NCI-H23 > 100 µM | OVCAR-3 > 100 µM | OVCAR-5 54.2 µM | PC-3 > 100 µM | SF-539 > 100 µM | SK-MEL-2 > 100 µM | SK-MEL-5 76.7 µM | SK-OV-3 > 100 µM | TK-10 > 100 µM | UACC-62 67.1 µM

CC(C)(C)C1CCC2c3c([nH]c4ccccc34)C3C(=O)N(c4ccc5c(c4)C(=O)c4ccccc4C5=O)C(=O)C3C2C1 (centres undefined)
inactive: A498 > 100 µM | HCT-116 > 100 µM | HOP-62 > 100 µM | HT-29 > 100 µM | MCF7 > 100 µM | MDA-MB-231 > 100 µM | MOLT-4 > 100 µM | NCI-H23 > 100 µM | OVCAR-3 > 100 µM | OVCAR-5 > 100 µM | PC-3 > 100 µM | RPMI-8226 > 100 µM | SF-539 > 100 µM | SK-MEL-2 > 100 µM | SK-MEL-5 > 100 µM | SK-OV-3 > 100 µM | TK-10 > 100 µM | UACC-62 > 100 µM

CCCC[S+]([O-])CCC(N)P(=O)(O)O (centres undefined)
inactive: HCT-116 > 100 µM | HOP-62 > 100 µM | HOP-92 > 100 µM | HT-29 > 100 µM | MCF7 > 100 µM | MOLT-4 > 100 µM | NCI-H23 > 100 µM | OVCAR-3 > 100 µM | OVCAR-5 > 100 µM | PC-3 > 100 µM | RPMI-8226 > 100 µM | SK-MEL-2 > 100 µM | SK-MEL-5 > 100 µM | SK-OV-3 > 100 µM | TK-10 > 100 µM | UACC-62 > 100 µM

O=c1nc(N2CCCCC2)sc2[nH]c3ccccc3c12
inactive: A498 > 100 µM | HOP-62 36.2 µM | HOP-92 55.3 µM | HT-29 62.4 µM | MDA-MB-231 78.7 µM | MOLT-4 > 100 µM | NCI-H23 12.2 µM | OVCAR-3 88.9 µM | OVCAR-5 11.1 µM | PC-3 > 100 µM | RPMI-8226 40.9 µM | SF-539 > 100 µM | SK-MEL-2 > 100 µM | SK-MEL-5 > 100 µM | SK-OV-3 > 100 µM | TK-10 66.2 µM | UACC-62 > 100 µM

O=C(NNC(=S)NCc1ccccc1)c1csc(NC(=S)NC2CCCCC2)n1
inactive: A498 42 µM | HCT-116 22.3 µM | HOP-62 64.1 µM | HT-29 3.42 µM | MCF7 29.6 µM | MDA-MB-231 44.9 µM | MOLT-4 30.3 µM | NCI-H23 43 µM | OVCAR-3 42.1 µM | OVCAR-5 > 100 µM | PC-3 37.3 µM | RPMI-8226 25.9 µM | SF-539 38 µM | SK-MEL-2 27 µM | SK-MEL-5 13.8 µM | SK-OV-3 50.6 µM | TK-10 42.5 µM | UACC-62 40.1 µM

CC1=C(C(=O)NNC(=O)Cc2ccccc2)CC(C(=O)NNC(=O)Cc2ccccc2)=C(C)N1
inactive: A498 > 100 µM | HCT-116 > 100 µM | HOP-62 > 100 µM | HOP-92 > 100 µM | HT-29 > 100 µM | MCF7 > 100 µM | MDA-MB-231 > 100 µM | NCI-H23 > 100 µM | OVCAR-3 > 100 µM | OVCAR-5 > 100 µM | SF-539 > 100 µM | SK-MEL-2 > 100 µM | SK-MEL-5 > 100 µM | SK-OV-3 > 100 µM | TK-10 > 100 µM | UACC-62 35.4 µM

CCCCN1C(=O)c2c(Br)sc(Br)c2C1=O
inactive: A498 50.6 µM | HCT-116 24.9 µM | HOP-62 26.6 µM | HT-29 23.3 µM | MCF7 20.2 µM | MDA-MB-231 26.9 µM | MOLT-4 24.2 µM | NCI-H23 44.3 µM | OVCAR-5 30.4 µM | PC-3 28.8 µM | RPMI-8226 29.3 µM | SF-539 24.2 µM | SK-MEL-2 46 µM | SK-MEL-5 39.5 µM | SK-OV-3 37.6 µM | TK-10 60 µM | UACC-62 32.4 µM

CCC(C)N1CN(c2ccccc2)C2(CCN(CCCC(=O)c3ccc(F)cc3)CC2)C1=O (centres undefined)
inactive: A498 2.82 µM | HOP-62 1.87 µM | MDA-MB-231 10.8 µM | MOLT-4 3.92 µM | NCI-H23 3.57 µM | OVCAR-3 11.9 µM | PC-3 10.6 µM | RPMI-8226 5.52 µM | SF-539 7.71 µM | SK-MEL-2 14.9 µM | SK-MEL-5 1.19 µM | SK-OV-3 9.29 µM | TK-10 4.85 µM | UACC-62 16.6 µM
active: HCT-116 0.697 µM | HT-29 0.429 µM | MCF7 0.381 µM | OVCAR-5 0.839 µM

CCCCCCCCCCCCCCCCCCOC(COP(=O)(O)OCC1OC(n2cc(F)c(=O)[nH]c2=O)CC1O)COP(=O)(O)OCC1OC(n2ccc(N)nc2=O)C(O)C1O (centres undefined)
active: A498 0.485 µM | SF-539 0.863 µM
inactive: HCT-116 6.19 µM | HOP-62 1.95 µM | HT-29 18.2 µM | MCF7 2.37 µM | MDA-MB-231 > 100 µM | MOLT-4 1.72 µM | NCI-H23 7.98 µM | OVCAR-3 > 100 µM | OVCAR-5 66.8 µM | PC-3 15.6 µM | RPMI-8226 10.9 µM | SK-MEL-2 > 67 µM | SK-MEL-5 > 73.5 µM | SK-OV-3 > 71.3 µM | TK-10 33.2 µM | UACC-62 2.56 µM

COC(=O)C1=C(OC)C(=P2(c3ccccc3)CC(c3ccccc3)=C2c2ccccc2)C(C(=O)OC)=C1C(=O)OC (centres undefined)
inactive: HCT-116 22.8 µM | HOP-62 > 100 µM | MCF7 7.55 µM | MDA-MB-231 > 72.8 µM | MOLT-4 3.17 µM | NCI-H23 33.8 µM | OVCAR-3 35 µM | OVCAR-5 > 100 µM | PC-3 10.8 µM | RPMI-8226 9.42 µM | SF-539 23.6 µM | SK-MEL-2 54.5 µM | SK-MEL-5 15.7 µM | SK-OV-3 > 61.5 µM | TK-10 > 20.2 µM | UACC-62 61.2 µM

Cc1cn([C@H]2C[C@H](O)[C@@H](CO)O2)c(=O)nc1N
inactive: A498 > 100 µM | HCT-116 > 100 µM | HOP-62 > 100 µM | HT-29 > 100 µM | MCF7 > 100 µM | MDA-MB-231 > 100 µM | MOLT-4 > 100 µM | NCI-H23 > 100 µM | OVCAR-3 > 100 µM | OVCAR-5 > 100 µM | PC-3 > 100 µM | RPMI-8226 > 100 µM | SF-539 > 100 µM | SK-MEL-2 > 100 µM | SK-MEL-5 > 100 µM | SK-OV-3 > 100 µM | TK-10 > 100 µM | UACC-62 > 100 µM

O=C(/C(=C\C(=O)c1cccs1)c1ccsc1)c1ccc(Br)cc1
inactive: A498 > 100 µM | HCT-116 > 100 µM | HOP-62 > 100 µM | HT-29 80 µM | MCF7 > 100 µM | MDA-MB-231 > 100 µM | MOLT-4 > 100 µM | NCI-H23 80.2 µM | PC-3 > 100 µM | RPMI-8226 71.1 µM | SF-539 > 100 µM | SK-MEL-2 > 100 µM | SK-MEL-5 > 100 µM | SK-OV-3 > 100 µM | TK-10 > 100 µM | UACC-62 > 100 µM

CSc1cnn(CCC#N)c(=O)n1
inactive: A498 74 µM | HCT-116 > 100 µM | HOP-62 > 100 µM | HT-29 > 100 µM | MCF7 39.4 µM | MDA-MB-231 > 100 µM | MOLT-4 27.1 µM | NCI-H23 > 100 µM | OVCAR-5 > 100 µM | PC-3 > 100 µM | RPMI-8226 > 100 µM | SF-539 > 100 µM | SK-MEL-5 26.4 µM | SK-OV-3 > 100 µM | TK-10 > 100 µM | UACC-62 > 100 µM
